According to patent US12331044B2, “Inhibitors of histone deacetylase useful for the treatment or prevention of HIV infection” (Merck Sharp & Dohme LLC, priority 2018, dated 2025):
Like-named read-outs stand apart in the source and are kept apart here.

Assays:
human HDAC8 = human HDAC8 (Homo sapiens (Human), UniProt Q9BY41); assay: HDAC8 inhibition assay (modified FLUOR DE LYS, 384-well); assay type: biochemical; details: […] enzyme, 200 μM substrate BML-KI178, 3 h pre-incubation; read-out: HDAC8 IC50
human HDAC2 = human HDAC2 (Homo sapiens (Human), UniProt Q92769); assay: HDAC2 inhibition assay (modified FLUOR DE LYS, 384-well); assay type: biochemical; details: […] enzyme, 40 μM substrate BML-KI104, 3 h pre-incubation; read-out: HDAC2 IC50
HDAC6 = HDAC6 (Homo sapiens (Human), UniProt Q9UBN7)
Protocol: The histone deacetylase activities of HDAC1, HDAC2, HDAC3, HDAC6, and HDAC8 were measured in modified FLUOR DE LYS assays in 384-well format. In this assay, HDAC enzymes are initially incubated with an F-acetyl (or -trifluoroacetyl)-L-lysine-containing substrate with a C-terminal amide having aminomethylcoumarin as the amine component. HDACs cleave the F-acetyl group, rendering the resulting product susceptible to AMC cleavage by trypsin. The released AMC is then detected by its fluorescence. […] All steps were performed at room temperature (23° C.). The assay was performed by pre-incubating serial dilutions of test compounds with the target HDAC prior to initiation with substrate. […] Final conditions used for each assay were: 1. […] The reactions were stopped and developed by addition of 30 ul of HDAC developer solution containing a saturating level of HDAC inhibitor as follows: 1. […] For data analysis, background subtracted product (fluorescence) vs. time data for each inhibitor concentration was fitted using a 4-parameter fit.

human HDAC1 = human HDAC1 (Homo sapiens (Human), UniProt Q13547)
[1] = target: human HDAC3/SMRT heterodimer (Homo sapiens (Human), UniProt O15379)
KARN cells (Jurkat 2C4) = assay: cells; details: Homo sapiens
[2] = read-out: Karn EC50 nM 0.1% NHS, 0.1% normal human serum, luciferase induction, 2 μM SAHA = 100%
[3] = read-out: Karn EC50 nM 5% NHS, 5% normal human serum, luciferase induction, 2 μM SAHA = 100%

human HDAC3/SMRT heterodimer, sequence (O15379 whole entry): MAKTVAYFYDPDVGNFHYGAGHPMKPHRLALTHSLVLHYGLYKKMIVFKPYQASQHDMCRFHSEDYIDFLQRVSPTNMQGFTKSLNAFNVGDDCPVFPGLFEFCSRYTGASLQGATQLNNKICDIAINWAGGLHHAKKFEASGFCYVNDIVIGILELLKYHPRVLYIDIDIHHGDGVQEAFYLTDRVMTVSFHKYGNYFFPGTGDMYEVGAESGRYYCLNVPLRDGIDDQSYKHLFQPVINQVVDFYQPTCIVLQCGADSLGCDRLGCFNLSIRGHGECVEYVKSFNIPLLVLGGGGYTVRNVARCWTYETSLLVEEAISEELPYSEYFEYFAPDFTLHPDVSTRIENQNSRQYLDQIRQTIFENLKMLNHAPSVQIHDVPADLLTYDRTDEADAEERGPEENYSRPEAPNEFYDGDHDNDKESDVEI
human HDAC3/SMRT heterodimer, sequence (Q9Y618 1-899 partner): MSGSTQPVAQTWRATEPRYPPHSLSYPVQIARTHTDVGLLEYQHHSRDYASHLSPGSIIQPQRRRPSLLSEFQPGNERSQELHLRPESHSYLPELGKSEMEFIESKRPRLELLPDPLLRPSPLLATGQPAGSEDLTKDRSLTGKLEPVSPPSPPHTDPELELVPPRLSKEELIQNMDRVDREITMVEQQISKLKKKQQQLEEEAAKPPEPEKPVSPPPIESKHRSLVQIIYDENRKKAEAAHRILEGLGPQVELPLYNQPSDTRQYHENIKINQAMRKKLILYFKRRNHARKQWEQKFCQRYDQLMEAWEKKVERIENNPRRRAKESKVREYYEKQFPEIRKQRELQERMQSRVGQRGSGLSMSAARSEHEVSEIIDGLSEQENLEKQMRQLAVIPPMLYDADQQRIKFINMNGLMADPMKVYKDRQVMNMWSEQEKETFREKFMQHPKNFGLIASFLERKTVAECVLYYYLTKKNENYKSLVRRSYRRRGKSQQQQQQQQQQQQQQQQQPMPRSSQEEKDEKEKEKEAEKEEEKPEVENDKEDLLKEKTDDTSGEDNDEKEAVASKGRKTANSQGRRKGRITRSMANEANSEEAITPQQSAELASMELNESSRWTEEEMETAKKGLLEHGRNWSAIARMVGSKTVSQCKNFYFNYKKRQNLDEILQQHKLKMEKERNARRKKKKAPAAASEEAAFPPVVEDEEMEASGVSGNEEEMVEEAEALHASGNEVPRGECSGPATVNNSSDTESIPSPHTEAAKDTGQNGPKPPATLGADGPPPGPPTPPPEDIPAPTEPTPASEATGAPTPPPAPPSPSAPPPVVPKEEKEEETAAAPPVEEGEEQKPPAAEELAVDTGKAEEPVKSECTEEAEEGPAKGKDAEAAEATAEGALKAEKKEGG
human HDAC1, sequence (Q13547 whole entry): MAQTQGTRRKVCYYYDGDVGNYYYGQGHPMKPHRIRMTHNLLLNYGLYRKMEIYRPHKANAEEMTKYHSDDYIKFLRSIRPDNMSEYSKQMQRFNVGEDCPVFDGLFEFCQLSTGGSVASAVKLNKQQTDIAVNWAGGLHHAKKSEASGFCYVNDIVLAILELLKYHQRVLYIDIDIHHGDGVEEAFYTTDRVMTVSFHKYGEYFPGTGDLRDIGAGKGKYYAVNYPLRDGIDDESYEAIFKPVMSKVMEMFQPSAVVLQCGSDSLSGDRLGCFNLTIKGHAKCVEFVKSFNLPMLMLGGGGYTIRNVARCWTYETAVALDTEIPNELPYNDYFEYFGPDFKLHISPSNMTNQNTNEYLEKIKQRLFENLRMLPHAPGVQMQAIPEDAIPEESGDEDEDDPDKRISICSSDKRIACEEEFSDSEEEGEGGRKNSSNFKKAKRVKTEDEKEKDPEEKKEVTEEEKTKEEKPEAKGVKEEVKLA
human HDAC8, sequence (Q9BY41 whole entry): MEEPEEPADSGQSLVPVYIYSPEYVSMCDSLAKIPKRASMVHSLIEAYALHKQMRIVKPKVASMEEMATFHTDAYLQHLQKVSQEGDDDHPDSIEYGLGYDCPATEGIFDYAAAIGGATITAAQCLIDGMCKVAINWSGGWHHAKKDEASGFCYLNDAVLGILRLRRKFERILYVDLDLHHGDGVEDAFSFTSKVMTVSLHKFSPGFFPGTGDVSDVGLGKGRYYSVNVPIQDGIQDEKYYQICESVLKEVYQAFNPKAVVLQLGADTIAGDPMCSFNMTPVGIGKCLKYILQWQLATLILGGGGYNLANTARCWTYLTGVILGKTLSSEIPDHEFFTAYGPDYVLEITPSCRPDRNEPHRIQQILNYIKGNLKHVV
human HDAC2, sequence (Q92769 whole entry): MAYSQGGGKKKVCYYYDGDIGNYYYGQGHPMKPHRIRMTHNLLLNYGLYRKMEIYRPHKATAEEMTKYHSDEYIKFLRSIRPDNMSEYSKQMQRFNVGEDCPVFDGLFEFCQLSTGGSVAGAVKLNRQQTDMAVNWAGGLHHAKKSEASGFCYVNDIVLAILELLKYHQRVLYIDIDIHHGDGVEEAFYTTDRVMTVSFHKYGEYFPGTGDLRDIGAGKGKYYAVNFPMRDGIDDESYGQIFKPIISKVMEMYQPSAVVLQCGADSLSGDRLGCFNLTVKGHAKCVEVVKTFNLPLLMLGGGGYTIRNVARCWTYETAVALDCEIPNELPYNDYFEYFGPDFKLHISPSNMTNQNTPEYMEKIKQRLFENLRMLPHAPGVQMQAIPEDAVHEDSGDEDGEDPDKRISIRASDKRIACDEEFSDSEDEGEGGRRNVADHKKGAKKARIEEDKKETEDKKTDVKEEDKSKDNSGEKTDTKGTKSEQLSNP
HDAC6, sequence (Q9UBN7 whole entry): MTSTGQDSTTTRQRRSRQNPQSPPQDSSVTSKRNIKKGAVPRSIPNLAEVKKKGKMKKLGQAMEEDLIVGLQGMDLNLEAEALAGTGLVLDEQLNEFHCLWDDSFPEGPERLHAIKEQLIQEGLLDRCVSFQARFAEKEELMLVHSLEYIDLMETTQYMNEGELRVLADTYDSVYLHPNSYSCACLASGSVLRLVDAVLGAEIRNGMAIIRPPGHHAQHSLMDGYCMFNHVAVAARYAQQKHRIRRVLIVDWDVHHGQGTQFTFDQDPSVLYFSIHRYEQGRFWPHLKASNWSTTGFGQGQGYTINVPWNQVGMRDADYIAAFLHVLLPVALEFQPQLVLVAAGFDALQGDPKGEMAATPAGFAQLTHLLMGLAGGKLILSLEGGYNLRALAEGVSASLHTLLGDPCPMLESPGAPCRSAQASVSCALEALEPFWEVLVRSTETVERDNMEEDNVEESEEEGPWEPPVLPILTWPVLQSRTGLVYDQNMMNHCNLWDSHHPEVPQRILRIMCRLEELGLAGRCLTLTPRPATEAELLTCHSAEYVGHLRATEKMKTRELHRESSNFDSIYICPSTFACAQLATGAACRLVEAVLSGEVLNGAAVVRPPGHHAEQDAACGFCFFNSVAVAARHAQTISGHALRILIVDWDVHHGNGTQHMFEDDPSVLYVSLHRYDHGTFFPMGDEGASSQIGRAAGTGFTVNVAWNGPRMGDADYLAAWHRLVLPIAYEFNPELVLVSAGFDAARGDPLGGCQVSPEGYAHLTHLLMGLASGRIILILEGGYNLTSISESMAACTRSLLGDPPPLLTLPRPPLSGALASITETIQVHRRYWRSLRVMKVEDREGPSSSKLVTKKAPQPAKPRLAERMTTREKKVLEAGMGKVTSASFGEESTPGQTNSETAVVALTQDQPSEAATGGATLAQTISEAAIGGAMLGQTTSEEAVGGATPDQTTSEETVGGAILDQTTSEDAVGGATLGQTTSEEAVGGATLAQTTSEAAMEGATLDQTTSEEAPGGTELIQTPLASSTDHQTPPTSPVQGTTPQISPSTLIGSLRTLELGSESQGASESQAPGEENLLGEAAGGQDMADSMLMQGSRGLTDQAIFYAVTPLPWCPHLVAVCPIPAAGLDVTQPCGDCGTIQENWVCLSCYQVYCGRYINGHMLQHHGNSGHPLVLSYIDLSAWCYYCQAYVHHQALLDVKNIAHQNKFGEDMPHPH

Row | Compound | IC50 (human HDAC8) [nM] | IC50 (human HDAC2) [nM] | IC50 (HDAC6) [nM] | IC50 (human HDAC1) [nM] | IC50 [1] [nM] | EC50 (KARN cells (Jurkat 2C4); [2]) [nM] | EC50 (KARN cells (Jurkat 2C4); [3]) [nM]
1 | CN[C@@H](CCCCCC(=O)c1ncco1)c1ncc(-c2ccc3nc(C)ccc3c2)[nH]1 [Example 75, (S)-7-(methylamino)-7-(5-(2-methylquinolin-6-yl)-1H-imidazol-2-yl)-1-(oxazol-2-yl)heptan-1-one] | 3400 | 7 | 26000 | 2.4 | 3.9 | 300 | 220
2 | COc1nc2ccccc2cc1-c1cnc([C@H](CCCCCC(=O)c2ncco2)NC(=O)CN2CCC2)[nH]1 [Example 51] | 31 | 2.3 | 690 | 0.38 | 0.66 | 11 | 56
3 | Cc1ccc2cc(-c3c[nH]c([C@H](CCCCCC(=O)c4ccon4)NC(=O)[C@H]4CC45CCN(C)CC5)n3)ccc2n1 [Example 44] | 5.7 | 0.97 | 45000 | 0.24 | 0.26 | 9.5 | 9.1
4 | COc1nc2ccccc2cc1-c1c[nH]c([C@H](CCCCCC(=O)c2ccon2)NC(=O)C2CCN(C)CC2)n1 [Example 40] | 3.3 | 1.8 | 2000 | 1.5 | 1.5 | 15 | 58
5 | CN1CCC2(CC1)C[C@@H]2C(=O)N[C@@H](CCCCCC(=O)c1ccon1)c1nc(Cl)c(-c2ccc(F)cc2)[nH]1 [Example 195, (S)-N-((S)-1-(4-chloro-5-(4-fluorophenyl)-1H-imidazol-2-yl)-7-(isoxazol-3-yl)-7-oxoheptyl)-6-methyl-6-azaspiro[2.5]octane-1-carboxamide 2,3-dihydroxysuccinate] | 9.6 | 0.32 | 3100 | 0.14 | 0.046 | 1.4 | 1.9
6 | COc1cc2nc(C)ccc2cc1-c1cnc([C@H](CCCCCC(=O)c2ncco2)NCc2ccccc2)[nH]1 [Example 82, (S)-7-(benzylamino)-7-(5-(7-methoxy-2-methylquinolin-6-yl)-1H-imidazol-2-yl)-1-(oxazol-2-yl)heptan-1-one] | 1800 | 7.8 | 1500 | 3.1 | 2.7 | 180 | 320
7 | CN1CCC2(CC1)C[C@@H]2C(=O)N[C@@H](CCCCCC(=O)c1ncco1)c1oc(-c2ccc(F)cc2)nc1C#N [Example 191, (S)-N-((S)-1-(4-cyano-2-(4-fluorophenyl)oxazol-5-yl)-7-(oxazol-2-yl)-7-oxoheptyl)-6-methyl-6-azaspiro[2.5]octane-1-carboxamide] | 2300 | 12 | 45000 | 2.5 | 1.9 | 110 | 100
8 | CCn1cc(-c2ccc3nc(C)ccc3c2)nc1[C@@H](N)CCCCCC(=O)c1ncco1 [Example 30, (S)-7-amino-7-(1-ethyl-4-(2-methylquinolin-6-yl)-1H-imidazol-2-yl)-1-(oxazol-2-yl)heptan-1-one] | 21000 | 230 | 38800 | 49 | 48 | 2500 | 4000
9 | CCn1ccc2cc(-c3cnc([C@H](CCCCCC(=O)c4ncco4)NC(=O)CN(C)C)[nH]3)c(OC)cc2c1=O [Example 96, (S)-2-(dimethylamino)-N-(1-(5-(2-ethyl-7-methoxy-1-oxo-1,2-dihydroisoquinolin-6-yl)-1H-imidazol-2-yl)-7-(oxazol-2-yl)-7-oxoheptyl)acetamide] | 57 | 3.8 | 920 | 0.51 | 0.94 | 14 | 24
10 | COc1nc2ccccc2cc1-c1cnc([C@H](CCCCCC(=O)c2ncco2)NC(=O)CN2CCCCC2)[nH]1 [Example 53] | 92 | 4.9 | 1100 | 2.4 | 1.6 | 26 | 220
